Where two headings read alike, the source gives them in different places.
Experiments:
HCT-116 cell line = test: Inhibition of cell growth, tetrazolium salt (MTT) assay; type: cell-based; settings: for HCT-116 % Inhibition at 0.25 μM: 0.25 μM compound; for IC50: Homo sapiens, HCT-116, 120 h, MTT, three to five days, read-out: HCT-116 IC50
In short: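 Growth inhibition by MTT reduction at 540 nm (0.2 mg/mL, 4 h at 37° C, formazan dissolved in DMSO), normalized to cells given only 0.5% v/v DMSO. HCT-116 cultures in McCoy's 5A were dosed 4 h post-plating and kept three to five days at 37° C, 5% CO2.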

[1] = biological target: human CDK4 and genetically truncated (1-264) cyclin D3 (Homo sapiens, UniProt P11802); test: Inhibition of CDK4/Cyclin D Retinoblastoma Kinase Activity; type: biochemical; settings: for Ki: apparent Ki, CDK4/truncated cyclin D3, Rb fragment substrate, 25 μM ATP
In short: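 The enzyme complex (5 nM), expressed in co-infected insect cells, was incubated with recombinant Rb fragment, 25 μM radiolabelled ATP and 2% DMSO at 30 °C. Reactions were stopped with EDTA after 20 minutes, or 60 minutes for tight-binding inhibitors. Apparent Ki values came from competitive inhibition fits.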

CDK2/Cyclin A = CDK2/Cyclin A (Homo sapiens, UniProt P24941); test: Inhibition of CDK2/Cyclin A Retinoblastoma Kinase Activity; type: biochemical; settings: for CDK2 % Inhibition At 0.03 μM: Table 2; for Ki: apparent Ki, CDK2/proteolyzed cyclin A, Rb fragment substrate, 25 μM ATP
In short: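 CDK2 (10 or 19 nM), insect-cell expressed, gel-filtration purified with truncated cyclin A; Rb fragment substrate; 25 μM ATP; 10 mM HEPES pH 7.4, 10 mM MgCl2; 30° C, 60 or 75 min; EDTA stop; phosphocellulose/nitrocellulose capture, phosphorimager. % inhibition vs DMSO control, no-enzyme background subtracted.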

[2] = 0.1 μM compound, HCT-116, Table 3

Chain of human CDK4 and genetically truncated (1-264) cyclin D3 (P11802 whole entry, the tested form may be a part): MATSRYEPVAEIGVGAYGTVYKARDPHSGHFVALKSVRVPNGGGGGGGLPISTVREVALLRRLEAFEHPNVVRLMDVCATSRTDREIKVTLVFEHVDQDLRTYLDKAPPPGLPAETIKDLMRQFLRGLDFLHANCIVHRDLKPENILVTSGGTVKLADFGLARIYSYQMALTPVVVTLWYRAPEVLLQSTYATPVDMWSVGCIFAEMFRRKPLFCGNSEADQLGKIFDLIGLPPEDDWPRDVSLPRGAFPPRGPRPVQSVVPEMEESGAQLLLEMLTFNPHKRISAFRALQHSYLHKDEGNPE
Chain of human CDK4 and genetically truncated (1-264) cyclin D3 (P30281 1-264 partner): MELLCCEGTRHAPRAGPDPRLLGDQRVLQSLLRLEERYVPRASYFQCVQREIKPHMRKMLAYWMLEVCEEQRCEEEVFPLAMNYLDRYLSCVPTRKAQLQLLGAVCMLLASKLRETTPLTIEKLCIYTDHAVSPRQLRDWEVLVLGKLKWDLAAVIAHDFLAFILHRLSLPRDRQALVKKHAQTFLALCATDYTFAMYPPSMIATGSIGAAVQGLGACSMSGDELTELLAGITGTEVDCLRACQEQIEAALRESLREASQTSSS

SMILES: Nc1nc(NC2CCN(C(=O)Nc3cccc(Cl)c3)CC2)sc1C(=O)c1c(F)cccc1F [Example O14]
- HCT-116 % Inhibition at 0.25 μM (HCT-116 cell line; HCT-116, Table 2): 23%
- CDK4 % Inhibition at 0.03 μM ([1]; 0.03 μM compound, Table 2): 9%
- CDK2 % Inhibition At 0.03 μM (CDK2/Cyclin A; 0.03 μM compound): 36%

SMILES: Nc1nc(NC2CCN(C(=O)Nc3cccnc3)CC2)sc1C(=O)c1c(F)cccc1F [Example O86]
- HCT-116 % Inhibition at 0.25 μM (HCT-116 cell line; HCT-116, Table 2): 47%
- CDK4 % Inhibition at 0.03 μM ([1]; 0.03 μM compound, Table 2): 23%
- CDK2 % Inhibition At 0.03 μM (CDK2/Cyclin A; 0.03 μM compound): 32%

SMILES: Nc1nc(NC2CCN(S(=O)(=O)c3ccc4ccccc4c3)CC2)sc1C(=O)c1c(F)cccc1F [Example P3]
- HCT-116 % Inhibition at 0.1 μM (HCT-116 cell line; [2]): 17%
- HCT-116 % Inhibition at 0.25 μM (HCT-116 cell line; HCT-116, Table 3): 23%
- CDK4 % Inhibition at 0.03 μM ([1]; 0.03 μM compound, Table 3): 65%
- CDK2 % Inhibition at 0.03 μM (CDK2/Cyclin A; 0.03 μM compound, Table 3): 64%

SMILES: Nc1nc(NC2CCN(S(=O)(=O)c3ccc(-c4ccccn4)s3)CC2)sc1C(=O)c1c(F)cccc1F [Example P45]
- HCT-116 % Inhibition at 0.1 μM (HCT-116 cell line; [2]): 14%
- HCT-116 % Inhibition at 0.25 μM (HCT-116 cell line; HCT-116, Table 3): 27%
- CDK4 % Inhibition at 0.03 μM ([1]; 0.03 μM compound, Table 3): 82%
- CDK2 % Inhibition at 0.03 μM (CDK2/Cyclin A; 0.03 μM compound, Table 3): 65%

SMILES: COc1c(C(=O)N2CCC(Nc3nc(N)c(C(=O)c4c(F)cccc4F)s3)CC2)csc1Cl [Example R49]
- HCT-116 % Inhibition at 0.1 μM (HCT-116 cell line; HCT-116 cells, at 0.1 μM): 0%
- HCT-116 5 Inhibition at 0.25 μM (HCT-116 cell line; HCT-116 cells): 61
- CDK4 % Inhibition at 0.03 μM ([1]; at 0.03 μM): 55%
- CDK2 % Inhibition at 0.03 μM (CDK2/Cyclin A; at 0.03 μM): 34%

SMILES: Nc1nc(NC2CCN(S(=O)(=O)c3ccc(CBr)cc3)CC2)sc1C(=O)c1c(F)cccc1F [Example P68]
- HCT-116 % Inhibition at 0.1 μM (HCT-116 cell line; [2]): 8%
- HCT-116 % Inhibition at 0.25 μM (HCT-116 cell line; HCT-116, Table 3): 25%
- CDK4 % Inhibition at 0.03 μM ([1]; 0.03 μM compound, Table 3): 70%
- CDK2 % Inhibition at 0.03 μM (CDK2/Cyclin A; 0.03 μM compound, Table 3): 72%

SMILES: N#CCCCS(=O)(=O)N1CCC(Nc2nc(N)c(C(=O)c3c(F)cccc3F)s2)CC1 [Example K17, 1-(4-{4-Amino-5-[1-(2,6-difluorophenyl)methanoyl]-thiazol-2-ylamino}-piperidine-1-sulfonyl)butyronitrile.]
- IC50 (HCT-116 cell line; first HCT-116 column (c4)): 890 nM
- IC50 (HCT-116 cell line; second HCT-116 column (c5)): 2200 nM
- Ki [1]: 3.4 nM
- Ki (CDK2/Cyclin A): 2.5 nM

SMILES: C[C@@H]1CN(CCCS(=O)(=O)N2CCC(Nc3nc(N)c(C(=O)c4c(F)cccc4F)s3)CC2)C[C@H](C)N1 [Example K1, 1-(4-Amino-2-{1-[3-(3,5-cis-dimethylpiperazin-1-yl)-propane-1-sulfonyl]-piperidin-4-ylamino}-thiazol-5-yl)-1-(2,6-difluoro-phenyl)-methanone]
- IC50 (HCT-116 cell line; first HCT-116 column (c4)): > 5000 nM
- IC50 (HCT-116 cell line; second HCT-116 column (c5)): > 5000 nM
- Ki [1]: 2 nM
- Ki (CDK2/Cyclin A): 7.8 nM

SMILES: COC(=O)[C@@H](NC(=O)N1CCC(Nc2nc(N)c(C(=O)c3c(F)cccc3F)s2)CC1)C(C)C [Example O76]
- HCT-116 % Inhibition at 0.25 μM (HCT-116 cell line; HCT-116, Table 2): 49%
- CDK4 % Inhibition at 0.03 μM ([1]; 0.03 μM compound, Table 2): 5%
- CDK2 % Inhibition At 0.03 μM (CDK2/Cyclin A; 0.03 μM compound): 22%

SMILES: Nc1nc(NC2CCN(S(=O)(=O)c3cc(Cl)sc3Cl)CC2)sc1C(=O)c1c(F)cccc1F [Example P35]
- HCT-116 % Inhibition at 0.1 μM (HCT-116 cell line; [2]): 1%
- HCT-116 % Inhibition at 0.25 μM (HCT-116 cell line; HCT-116, Table 3): 22%
- CDK4 % Inhibition at 0.03 μM ([1]; 0.03 μM compound, Table 3): 47%
- CDK2 % Inhibition at 0.03 μM (CDK2/Cyclin A; 0.03 μM compound, Table 3): 37%

SMILES: CCN1CCN(C(=O)N2CCC(Nc3nc(N)c(C(=O)c4c(F)cccc4F)s3)CC2)C(=O)C1=O [Example R83]
- HCT-116 % Inhibition at 0.1 μM (HCT-116 cell line; HCT-116 cells, at 0.1 μM): 0%
- HCT-116 5 Inhibition at 0.25 μM (HCT-116 cell line; HCT-116 cells): 45
- CDK4 % Inhibition at 0.03 μM ([1]; at 0.03 μM): 52%
- CDK2 % Inhibition at 0.03 μM (CDK2/Cyclin A; at 0.03 μM): 21%

SMILES: Nc1nc(NC2CCN(S(=O)(=O)c3cccc([N+](=O)[O-])c3)CC2)sc1C(=O)c1c(F)cccc1F [Example P11]
- HCT-116 % Inhibition at 0.1 μM (HCT-116 cell line; [2]): 19%
- HCT-116 % Inhibition at 0.25 μM (HCT-116 cell line; HCT-116, Table 3): 27%
- CDK4 % Inhibition at 0.03 μM ([1]; 0.03 μM compound, Table 3): 22%
- CDK2 % Inhibition at 0.03 μM (CDK2/Cyclin A; 0.03 μM compound, Table 3): −23%

SMILES: Nc1nc(NC2CCN(C(=O)c3ccc(C(F)(F)F)cc3)CC2)sc1C(=O)c1c(F)cccc1F [Example Q33]
- HCT-116 % Inhibition at 0.1 μM (HCT-116 cell line; 0.1 μM compound, HCT-116, Table 4): 0%
- HCT-116 % Inhibition at 0.25 μM (HCT-116 cell line; HCT-116, Table 4): 16%
- CDK4 % Inhibition at 0.03 μM ([1]; 0.03 μM compound, Table 4): 65%
- CDK2 % Inhibition at 0.03 μM (CDK2/Cyclin A; 0.03 μM compound, Table 4): 23%

Reference: US20050101595A1, “N-containing cycloalkyl-substituted amino-thiazole derivatives and pharmaceutical compositions for inhibiting cell proliferation and methods for their use” (PFIZER INC., priority 2003, published 2005)
